We go through eleven molecules from PubChem BioAssay (NCI).

Some test systems named below: A549 NSCLC; HS 578T breast; HT29 colon; KM12 colon; NCI-H226 lung; NCI-H23 lung; OVCAR-8 ovarian; SNB-19 CNS; UACC-257 melanoma; SR leukemia.
Common to all, as to test: NCI tumour cell line growth inhibition, 48 h

Values joined by “and” are separate entries in the source; they are usually repeats but may differ in a detail not shown here. Equal entries are not always repeated.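 Tested at 5 concentrations; 48 h exposure; 96-well plates; endpoints linearly interpolated, else capped at highest concentration. Here, GI50 denotes the concentration required for 50% inhibition of growth. Definition used: TGI = concentration required for complete inhibition of growth.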

Take `CC1=C2C(=C[C@@](C)(CO)[C@@H]2O)C(=O)[C@](C)(O)C12CC2`: the TGI with A549 NSCLC was 0.0885 µM and 0.2 µM; in the experiment with HS 578T breast, 0.0428 µM; with HT29 colon, 0.0286 µM; in the experiment with KM12 colon, 0.105 µM and 0.568 µM; in the experiment on NCI-H226 lung, 0.0507 µM and 0.0611 µM; with OVCAR-8 ovarian it was 0.0311 µM. Further, the TGI in the experiment on SNB-19 CNS is 0.0921 µM; with UACC-257 melanoma it was 0.0308 µM and 0.0229 µM. The GI50 in the experiment on NCI-H23 lung was 0.3 µM.
Consider `O=C(Nc1ccccc1-c1nn(C(=S)Nc2ccccc2)c(=S)n(C(=S)Nc2ccccc2)c1=O)C(F)(F)F`, for which the TGI in the experiment on A549 NSCLC was > 100 µM; in the experiment on HT29 colon, > 78.9 µM; with KM12 colon, 52 µM; in the experiment on NCI-H226 lung, 76 µM; in the experiment on NCI-H23 lung, > 31.6 µM; with OVCAR-8 ovarian, > 90.3 µM. Moreover, the values for the TGI in the experiment with SNB-19 CNS and in the experiment with UACC-257 melanoma were > 100 µM and 31.4 µM, respectively.
As for `Nc1cc(NN=C(c2ccc(O)cc2)c2ccc(O)cc2)c([N+](=O)[O-])cc1[N+](=O)[O-]`, the GI50 in the experiment on A549 NSCLC was 2.29 µM; in the experiment with HT29 colon it was 2.63 µM; in the experiment on KM12 colon, 1.52 µM; in the experiment with NCI-H23 lung, 2.31 µM; in the experiment on OVCAR-8 ovarian, 3.12 µM; in the experiment on SNB-19 CNS it was 2.32 µM. Further, the GI50 is 2.03 µM in the experiment on SR leukemia and 4.3 µM in the experiment on UACC-257 melanoma. The TGI in the experiment on A549 NSCLC turned out to be 5.69 µM; in the experiment with HT29 colon it was 8.19 µM; in the experiment with KM12 colon it was 2.85 µM; in the experiment on NCI-H23 lung it was 6.07 µM; in the experiment on OVCAR-8 ovarian, 15.1 µM; in the experiment with SNB-19 CNS, 7.12 µM. The TGI came out at 7.48 µM with SR leukemia and 17.1 µM with UACC-257 melanoma.
For `c1ccc(NCn2cnc3ccccc32)cc1`, the TGI in the experiment with A549 NSCLC, in the experiment with HT29 colon, in the experiment with KM12 colon, with NCI-H226 lung, with NCI-H23 lung and with OVCAR-8 ovarian was > 100 µM each time. Besides, the TGI in the experiment on SNB-19 CNS and in the experiment with UACC-257 melanoma was > 100 µM in each case.
In the case of `N[C@@H]1CCCC[C@@H]1N.O=P([O-])([O-])CN(CCN(CP(=O)([O-])[O-])CP(=O)([O-])[O-])CP(=O)([O-])[O-].[Pt+2]`, the GI50 with A549 NSCLC, in the experiment with HT29 colon, with KM12 colon, with NCI-H226 lung, in the experiment on NCI-H23 lung and in the experiment on OVCAR-8 ovarian was > 25 µM in each case. For the same molecule, the GI50 in the experiment on SNB-19 CNS and in the experiment with UACC-257 melanoma was > 25 µM in each case. Further, the TGI with A549 NSCLC, in the experiment with HT29 colon, in the experiment with KM12 colon, in the experiment on NCI-H226 lung, with NCI-H23 lung and with OVCAR-8 ovarian was > 25 µM throughout. The TGI in the experiment with SNB-19 CNS and with UACC-257 melanoma was > 25 µM throughout.
Consider `CC1(C)OC1COc1c2occc2cc2ccc(=O)oc12` (centres undefined), for which the TGI in the experiment with A549 NSCLC, in the experiment with HS 578T breast, in the experiment on HT29 colon, with KM12 colon, with NCI-H226 lung and in the experiment with NCI-H23 lung was > 100 µM throughout. The TGI in the experiment with OVCAR-8 ovarian, in the experiment with SNB-19 CNS and in the experiment with UACC-257 melanoma was > 100 µM each time.
`NC(=O)C(=Cn1c(=S)[nH]c2ccc([N+](=O)[O-])cc21)C(N)=O`: the TGI in the experiment on A549 NSCLC, with HT29 colon, in the experiment on KM12 colon, with NCI-H226 lung, in the experiment on NCI-H23 lung and with OVCAR-8 ovarian was > 100 µM in each case. The TGI with SNB-19 CNS and in the experiment on UACC-257 melanoma was > 100 µM each time.
Consider `Cc1ccc(-n2c3nc(=O)[nH]c(=O)c-3cc3cc([N+](=O)[O-])ccc32)cc1`, for which the GI50 with A549 NSCLC is 44.6 µM; in the experiment with HT29 colon it was 12 µM; in the experiment on KM12 colon, 3.79 µM; with NCI-H226 lung it was 24.6 µM; with NCI-H23 lung, 13.4 µM; in the experiment with OVCAR-8 ovarian, 38.6 µM. The GI50 with SNB-19 CNS was 17.3 µM; in the experiment with UACC-257 melanoma it was 26.7 µM. The TGI with A549 NSCLC was > 100 µM; with HT29 colon, 37.2 µM; in the experiment with KM12 colon, 16.1 µM; with NCI-H226 lung, 86 µM; in the experiment on NCI-H23 lung, 29.6 µM; in the experiment on OVCAR-8 ovarian, > 100 µM. Further, the TGI turned out to be 74 µM in the experiment with SNB-19 CNS and 70.9 µM with UACC-257 melanoma.
`COc1cccc(-c2nc(-c3ccc(NC(=O)OC(C)C)cc3)[nH]c2-c2ccnc(Br)c2)c1`: the GI50 in the experiment on A549 NSCLC is 2.96 µM; in the experiment on HS 578T breast it was 0.308 µM; in the experiment with HT29 colon, 2.37 µM; with KM12 colon it was 2.41 µM; in the experiment with NCI-H226 lung, 2.46 µM; in the experiment with NCI-H23 lung, 2.61 µM. The GI50 with OVCAR-8 ovarian was 3.12 µM; in the experiment on SNB-19 CNS, 3.19 µM; with UACC-257 melanoma, 3.15 µM. In addition, the TGI is > 100 µM with A549 NSCLC; 1.69 µM in the experiment with HS 578T breast; > 100 µM in the experiment with HT29 colon; > 100 µM with KM12 colon; 87.5 µM in the experiment with NCI-H226 lung; 9.54 µM in the experiment with NCI-H23 lung. In addition, the TGI in the experiment on OVCAR-8 ovarian, with SNB-19 CNS and in the experiment with UACC-257 melanoma was > 100 µM throughout.
With `O=C1CCCCN1c1ccccc1C#C/C=C\C#Cc1ccccc1C(F)(F)F`, the GI50 was 1.57 µM in the experiment on A549 NSCLC; 3.75 µM with HS 578T breast; 0.97 µM with HT29 colon; 1.8 µM with KM12 colon; 1.28 µM with NCI-H226 lung; 1.26 µM with NCI-H23 lung. Also, the GI50 in the experiment on OVCAR-8 ovarian is 1.49 µM; in the experiment on SNB-19 CNS, > 50 µM; in the experiment with UACC-257 melanoma, 2.72 µM. The TGI was 5.16 µM with A549 NSCLC; > 50 µM in the experiment with HS 578T breast; 2.63 µM in the experiment on HT29 colon; 11.4 µM in the experiment on KM12 colon; 3.7 µM in the experiment with NCI-H226 lung; 4 µM in the experiment with NCI-H23 lung. Moreover, the TGI is 5.64 µM in the experiment with OVCAR-8 ovarian, > 50 µM in the experiment on SNB-19 CNS and 18.3 µM in the experiment on UACC-257 melanoma.
On to `Cc1ccc(/C=C/C(=O)c2cccc3ccccc23)cc1`, for which the TGI in the experiment on A549 NSCLC came to 43.2 µM; with HT29 colon, 43.4 µM; in the experiment on KM12 colon, 27.9 µM; with NCI-H226 lung, 34.3 µM; in the experiment on OVCAR-8 ovarian, 29 µM; in the experiment with SNB-19 CNS it was 29.6 µM. The TGI with SR leukemia is 78.2 µM; with UACC-257 melanoma it was 33.7 µM.
